Experimental data reported in patent US8952030B2, “Morphinan derivative” (priority 2011, dated 2015).
pEC50: −log10 of the molar value. Read-outs that look alike come from different tables or passages of the source.

How the values were obtained:
Format in all cases: cell-based
opioid μ receptor = biological target: T1, opioid μ receptor (Homo sapiens, UniProt P35372); test: Opioid receptor functional test (Lance Ultra cAMP Kit), μ receptor agonist activity; conditions: for pEC50: CHO cells expressing μ opioid receptor, 10 μM forskolin, cAMP; for Emax at 10 µM: maximum concentration (10 μM), reaction did not reach the maximum, EC50 N.C., relative to DAMGO
T1 construct: expressed in transfected cells; host or cells: CHO cells
T1 sequence (P35372 whole entry): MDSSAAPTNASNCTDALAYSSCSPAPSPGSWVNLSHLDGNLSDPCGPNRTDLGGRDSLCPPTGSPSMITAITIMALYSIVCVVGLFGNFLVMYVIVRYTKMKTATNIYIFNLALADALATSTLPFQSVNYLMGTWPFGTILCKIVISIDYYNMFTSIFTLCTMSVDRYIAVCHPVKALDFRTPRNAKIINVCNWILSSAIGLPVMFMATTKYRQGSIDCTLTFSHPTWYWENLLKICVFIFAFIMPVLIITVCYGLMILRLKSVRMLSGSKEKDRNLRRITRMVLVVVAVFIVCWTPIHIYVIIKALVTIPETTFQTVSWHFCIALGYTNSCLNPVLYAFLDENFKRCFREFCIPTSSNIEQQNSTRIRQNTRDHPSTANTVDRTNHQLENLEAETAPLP
Method: (§1) Functional activities of the compounds of the present invention for the μ, […], and κ opioid receptors were investigated.
(§2) The test was performed according to a prescribed method by using Lance Ultra cAMP Kit (Perkin-Elmer). The agonist activities were evaluated as follows. The CHO cells expressing each opioid receptor (μ, δ, or κ) and a test compound were reacted in an assay buffer (1×HBSS, […], pH 7.4, […] IBMX (isobutylmethylxanthine), 7.5% BSA) for 30 minutes in the presence of 10 μM forskolin. Then, the cAMP detection reagent included in the kit was added, and after 1 hour, time-resolved fluorescence measurements were performed by using the EnVision plate reader (Perkin-Elmer). A dose-responce curve of the test compound was obtained from fluorescence values measured at 665 nm, and EC50 value and Emax value were calculated. The Emax value was calculated as a ratio of the maximum responce of the test compound with respect to the maximum responce of each control agent (SNC80 for δ, DAMGO for μ, U-69593 for κ) taken as 100%.
(§3) 1): Hydrochloride was used.

opioid κ receptor = biological target: T2, opioid κ receptor (Homo sapiens, UniProt P41145); test: Opioid receptor functional test (Lance Ultra cAMP Kit), κ receptor agonist activity; conditions: for Emax at 10 µM: maximum concentration (10 μM), reaction did not reach the maximum, EC50 N.C., relative to U-69593
T2 construct: expressed in transfected cells; host or cells: CHO cells
T2 sequence (P41145 whole entry): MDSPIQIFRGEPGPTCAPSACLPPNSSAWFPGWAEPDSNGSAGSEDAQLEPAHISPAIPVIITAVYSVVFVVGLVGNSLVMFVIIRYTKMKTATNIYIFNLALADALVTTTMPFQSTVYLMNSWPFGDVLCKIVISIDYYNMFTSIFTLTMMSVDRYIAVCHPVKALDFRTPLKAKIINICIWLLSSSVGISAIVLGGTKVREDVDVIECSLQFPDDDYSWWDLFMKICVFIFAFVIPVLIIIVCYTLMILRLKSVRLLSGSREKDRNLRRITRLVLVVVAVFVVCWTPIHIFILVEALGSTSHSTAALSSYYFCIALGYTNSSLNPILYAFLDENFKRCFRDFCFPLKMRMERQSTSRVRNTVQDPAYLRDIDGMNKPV
Method: as §1, §2, §3

opioid δ receptor = biological target: T3, opioid δ receptor (Homo sapiens, UniProt P41143); test: Opioid receptor functional test (Lance Ultra cAMP Kit), δ receptor agonist activity; conditions: for Emax: read-out: δ Receptor Emax
T3 construct: expressed in transfected cells; host or cells: CHO cells
T3 sequence (P41143 whole entry): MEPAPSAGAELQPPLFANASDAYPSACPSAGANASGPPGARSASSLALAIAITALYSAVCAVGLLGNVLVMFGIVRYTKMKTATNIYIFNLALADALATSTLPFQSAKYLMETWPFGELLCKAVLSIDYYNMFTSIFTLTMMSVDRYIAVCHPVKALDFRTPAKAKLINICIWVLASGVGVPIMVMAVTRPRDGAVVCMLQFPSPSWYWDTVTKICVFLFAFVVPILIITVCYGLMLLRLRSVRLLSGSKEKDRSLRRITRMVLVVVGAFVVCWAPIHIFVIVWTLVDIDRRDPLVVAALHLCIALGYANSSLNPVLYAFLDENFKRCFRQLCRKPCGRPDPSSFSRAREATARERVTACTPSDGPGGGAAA
Method: as §1, §2, §3

[1] = read-out: μ Receptor responce rate at the maximum concentration (reference value)
[2] = CHO cells expressing δ opioid receptor, 10 μM forskolin, cAMP, hydrochloride was used, read-out: δ Receptor EC50 value
[3] = maximum response relative to SNC80 taken as 100%, hydrochloride was used
[4] = maximum response relative to DAMGO taken as 100%, hydrochloride was used, read-out: μ Receptor Emax
[5] = hydrochloride was used, read-out: κ Receptor responce rate at the maximum concentration (reference value)
[6] = hydrochloride was used, read-out: μ Receptor responce rate at the maximum concentration (reference value)
[7] = CHO cells expressing κ opioid receptor, 10 μM forskolin, cAMP, hydrochloride was used, read-out: κ Receptor EC50 value
[8] = maximum response relative to U-69593 taken as 100%, hydrochloride was used, read-out: κ Receptor Emax

O=C(c1ccccc1)N1C[C@H]2O[C@@]34CC[C@@H]1[C@@H]2[C@@]31CCN(CC2CC2)[C@@H]4Cc2ccc(O)cc21 [Compound 10, [(1S,3aR,5aS,6R,11bR,11cS)-14-(cyclopropylmethyl)-10-hydroxy-1,2,3a,4,5,6,7,11c-octahydro-3H-6,11b-(iminoethano)-1,5a-epoxynaphtho[1,2-e]indol-3-yl](phenyl)methanone]
Emax (opioid μ receptor; [1]): 3.9%
Emax (opioid κ receptor; read-out: κ Receptor responce rate at the maximum concentration (reference value)): 2.9%
pEC50 (opioid δ receptor; [2]): > 9.00
Emax (opioid δ receptor; [3]): 127%

CN1CC[C@@]23c4cc(O)ccc4C[C@@H]1[C@]21CC[C@@H]2[C@H]3[C@@H](CN2C(=O)c2ccccc2)O1 [Compound 12, [(1S,3aR,5aS,6R,11bR,11cS)-10-hydroxy-14-methyl-1,2,3a,4,5,6,7,11c-octahydro-3H-6,11b-(iminoethano)-1,5a-epoxynaphtho[1,2-e]indol-3-yl](phenyl)methanone]
pEC50 (opioid μ receptor; hydrochloride was used): < 9.00
Emax (opioid μ receptor; [4]): 103%
pEC50 (opioid κ receptor): < 8.00
Emax (opioid κ receptor; read-out: κ Receptor Emax): 96%
pEC50 (opioid δ receptor; [2]): > 9.00
Emax (opioid δ receptor; [3]): 94%

O=C(c1ccccc1)N1C[C@H]2O[C@@]34CC[C@@H]1[C@@H]2[C@@]31CCN(CCO)[C@@H]4Cc2ccc(O)cc21 [Compound 27, [(1S,3aR,5aS,6R,11bR,11cS)-10-hydroxy-14-(2-hydroxyethyl)-1,2,3a,4,5,6,7,11c-octahydro-3H-6,11b-(iminoethano)-1,5a-epoxynaphtho[1,2-e]indol-3-yl](phenyl)methanone]
pEC50 (opioid μ receptor; hydrochloride was used): < 7.30
Emax (opioid μ receptor; [4]): 34%
Emax at 10 µM (opioid κ receptor; [5]): 33%
pEC50 (opioid δ receptor; [2]): > 8.00
Emax (opioid δ receptor; [3]): 95%

Oc1ccc2c(c1)[C@]13CCN(CC4CC4)[C@H](C2)[C@]12CC[C@@H]1[C@H]3[C@@H](CN1c1ccccc1)O2 [Compound 31, (1S,3aR,5aS,6R,11bR,11cS)-14-(cyclopropylmethyl)-3-phenyl-2,3,3a,4,5,6,7,11c-octahydro-1H-6,11b-(iminoethano)-1,5a-epoxynaphtho[1,2-e]indol-10-ol]
Emax at 10 µM (opioid μ receptor; [6]): 14%
pEC50 (opioid κ receptor; [7]): < 9.00
Emax (opioid κ receptor; [8]): 23%
pEC50 (opioid δ receptor; [2]): > 8.00
Emax (opioid δ receptor; [3]): 46%

O=C(c1ccco1)N1C[C@H]2O[C@@]34CC[C@@H]1[C@@H]2[C@@]31CCN(CC2CC2)[C@@H]4Cc2ccc(O)cc21 [Compound 50, [(1S,3aR,5aS,6R,11bR,11cS)-14-cyclopropylmethyl-10-hydroxy-1,2,3a,4,5,6,7,11c-octahydro-3H-6,11b-(iminoethano)-1,5a-epoxynaphtho[1,2-e]indol-3-yl](2-furyl)methanone]
Emax at 10 µM (opioid μ receptor; [6]): 5.4%
Emax at 10 µM (opioid κ receptor; [5]): 12%
pEC50 (opioid δ receptor; [2]): > 9.00
Emax (opioid δ receptor; [3]): 82%

O=C(/C=C/c1ccccc1)N1C[C@H]2OC34CCC1C2C31CCN(CC2CC2)C4Cc2ccc(O)cc21 (stereo partly drawn) [Compound 57, (2E)-1-[(1S,3aR,5aS,6R,11bR,11cS)-14-(cyclopropylmethyl)-10-hydroxy-1,2,3a,4,5,6,7,11c-octahydro-3H-6,11b-(iminoethano)-1,5a-epoxynaphtho[1,2-e]indol-3-yl]-3-phenylpropenone]
Emax at 10 µM (opioid μ receptor; [6]): 3%
Emax at 10 µM (opioid κ receptor; [5]): 25%
pEC50 (opioid δ receptor; [2]): > 8.00
Emax (opioid δ receptor; [3]): 63%

O=S(=O)(c1ccccc1)N1C[C@H]2O[C@@]34CC[C@@H]1[C@@H]2[C@@]31CCN(CC2CC2)[C@@H]4Cc2ccc(O)cc21 [Compound 58, (1S,3aR,5aS,6R,11bR,11cS)-3-benzenesulfonyl-14-(cyclopropylmethyl)-2,3,3a,4,5,6,7,11c-octahydro-1H-6,11b-(iminoethano)-1,5a-epoxynaphtho[1,2-e]indol-10-ol]
pEC50 (opioid μ receptor; hydrochloride was used): < 9.00
Emax (opioid μ receptor; [4]): 54%
Emax at 10 µM (opioid κ receptor; [5]): 19%
pEC50 (opioid δ receptor): > 8.00
Emax (opioid δ receptor): 66%

O=C(c1ccccc1)N1C[C@H]2O[C@@]34CC[C@@H]1[C@@H]2[C@@]31CCN(CC2CC2)[C@@H]4Cc2cccc(O)c21 [Compound 68, [(1S,3aR,5aS,6R,11bR,11cS)-14-(cyclopropylmethyl)-11-hydroxy-1,2,3a,4,5,6,7,11c-octahydro-3H-6,11b-(iminoethano)-1,5a-epoxynaphtho[1,2-e]indol-3-yl](phenyl)methanone]
pEC50 (opioid μ receptor; hydrochloride was used): < 7.00
Emax (opioid μ receptor; [4]): 56%
pEC50 (opioid κ receptor; [7]): < 7.00
Emax (opioid κ receptor; [8]): 99%
pEC50 (opioid δ receptor; [2]): > 8.00
Emax (opioid δ receptor; [3]): 90%

CCCN1CC[C@@]23c4cc(O)ccc4C[C@@H]1[C@]21CC[C@@H]2[C@H]3[C@@H](CN2C(=O)c2ccccc2)C1 [Compound 83, [(1S,3aR,5aS,6R,11bR,11cS)-10-hydroxy-14-propyl-1,2,3a,4,5,6,7,11c-octahydro-3H-6,11b-(iminoethano)-1,5a-methanonaphtho[1,2-e]indol-3-yl](phenyl)methanone]
Emax at 10 µM (opioid μ receptor; [6]): 7.9%
Emax at 10 µM (opioid κ receptor; [5]): 2.1%
pEC50 (opioid δ receptor; [2]): > 9.00
Emax (opioid δ receptor; [3]): 99%

O=C(c1ccccc1)N1C[C@H]2C[C@@]34CC[C@@H]1[C@@H]2[C@@]31CCN(CCF)[C@@H]4Cc2ccc(O)cc21 [Compound 84, [(1S,3aR,5aS,6R,11bR,11cS)-14-(2-fluoroethyl)-10-hydroxy-1,2,3a,4,5,6,7,11c-octahydro-3H-6,11b-(iminoethano)-1,5a-methanonaphtho[1,2-e]indol-3-yl](phenyl)methanone]
Emax at 10 µM (opioid μ receptor; [6]): 20%
Emax at 10 µM (opioid κ receptor; [5]): 5.9%
pEC50 (opioid δ receptor; [2]): > 8.00
Emax (opioid δ receptor; [3]): 99%

CC(C)N(Cc1ccccc1)C(=O)N1C[C@H]2C[C@@]34CCC1C2[C@@]31CCN(CC2CC2)[C@@H]4Cc2ccc(O)cc21 (stereo partly drawn) [Compound 155, (1S,5aS,6R,11bR)—N-benzyl-14-(cyclopropylmethyl)-10-hydroxy-N-isopropyl-3a,4,5,6,7,11c-hexahydro-1H-6,11b-(iminoethano)-1,5a-methanonaphtho[1,2-e]indole-3(2H)-carboxamide]
Emax at 10 µM (opioid μ receptor; [6]): 3%
pEC50 (opioid κ receptor; [7]): < 9.00
Emax (opioid κ receptor; [8]): 47%
pEC50 (opioid δ receptor; [2]): > 9.00
Emax (opioid δ receptor; [3]): 91%

O=C(N1CCCCC1)N1C[C@H]2CC34CCC1C2C31CCN(CC2CC2)C4Cc2ccc(O)cc21 (stereo partly drawn) [Compound 167]
Emax at 10 µM (opioid μ receptor; [6]): 4.6%
pEC50 (opioid κ receptor; [7]): < 9.00
Emax (opioid κ receptor; [8]): 22%
pEC50 (opioid δ receptor; [2]): > 9.00
Emax (opioid δ receptor; [3]): 96%

O=C(Oc1ccccc1)N1C[C@H]2CC34CCC1C2C31CCN(CC2CC2)C4Cc2ccc(O)cc21 (stereo partly drawn) [Compound 195]
Emax (opioid μ receptor; [1]): 5.6%
pEC50 (opioid κ receptor): < 9.00
Emax (opioid κ receptor; read-out: κ Receptor Emax): 27%
pEC50 (opioid δ receptor): > 8.00
Emax (opioid δ receptor): 92%

CC(C)COC(=O)N1C[C@H]2CC34CCC1C2C31CCN(CC2CC2)C4Cc2ccc(O)cc21 (stereo partly drawn) [Compound 196]
Emax at 10 µM (opioid μ receptor; [6]): 7.6%
pEC50 (opioid κ receptor; [7]): < 9.00
Emax (opioid κ receptor; [8]): 12%
pEC50 (opioid δ receptor; [2]): > 8.00
Emax (opioid δ receptor; [3]): 67%

Oc1ccc2c(c1)[C@]13CCN(CC4CC4)[C@H](C2)[C@]12CCC1C3[C@@H](CN1c1ccccn1)C2 (stereo partly drawn) [Compound 221, (1S,5aS,6R,11bR)-14-(cyclopropylmethyl)-3-(pyridin-2-yl)-2,3,3a,4,5,6,7,11c-octahydro-1H-6,11b-(iminoethano)-1,5a-methanonaphtho[1,2-e]indol-10-ol]
pEC50 (opioid μ receptor; hydrochloride was used): < 9.00
Emax (opioid μ receptor; [4]): 30%
pEC50 (opioid κ receptor; [7]): < 9.00
Emax (opioid κ receptor; [8]): 42%
pEC50 (opioid δ receptor; [2]): > 9.00
Emax (opioid δ receptor; [3]): 90%

COc1ccc2c(c1)[C@]13CCN(CC4CC4)[C@H](C2)[C@]12CCC1C3[C@@H](CN1c1nc(C)cc(C)n1)C2 (stereo partly drawn) [Compound 222, (1S,5aS,6R,11bR)-14-(cyclopropylmethyl)-3-(4,6-dimethylpyrimidin-2-yl)-10-methoxy-2,3,3a,4,5,6,7,11c-octahydro-1H-6,11b-(iminoethano)-1,5a-methanonaphtho[1,2-e]indole]
pEC50 (opioid μ receptor; hydrochloride was used): < 7.00
Emax (opioid μ receptor; [4]): 52%
Emax at 10 µM (opioid κ receptor; [5]): 43%
pEC50 (opioid δ receptor; [2]): > 8.00
Emax (opioid δ receptor; [3]): 105%

Oc1ccc2c(c1)C13CCN(CC4CC4)C(C2)C12CCC1C3[C@@H](CN1c1nccs1)C2 (stereo partly drawn) [Compound 241]
Emax at 10 µM (opioid μ receptor; [6]): 11%
pEC50 (opioid κ receptor; [7]): < 9.00
Emax (opioid κ receptor; [8]): 33%
pEC50 (opioid δ receptor; [2]): > 8.00
Emax (opioid δ receptor; [3]): 81%

Oc1ccc2c(c1)C13CCN(CC4CC4)C(C2)C12CCC1C3[C@@H](CN1c1nc(-c3ccccc3)cs1)C2 (stereo partly drawn) [Compound 242]
Emax at 10 µM (opioid μ receptor; [6]): 9.2%
pEC50 (opioid κ receptor; [7]): < 8.00
Emax (opioid κ receptor; [8]): 47%
pEC50 (opioid δ receptor; [2]): > 7.30
Emax (opioid δ receptor; [3]): 68%

Cc1cc(C)nc(N2C[C@H]3CC45CCC2C3C42CCN(CC(F)(F)c3ccccc3)C5Cc3ccc(O)cc32)n1 (stereo partly drawn) [Compound 283]
pEC50 (opioid μ receptor; hydrochloride was used): < 6.30
Emax (opioid μ receptor; [4]): 101%
Emax at 10 µM (opioid κ receptor; [5]): 11%
pEC50 (opioid δ receptor; [2]): > 7.30
Emax (opioid δ receptor; [3]): 91%

Cc1cc(C)nc(N2C[C@H]3CC45CCC2C3C42CCN(C[C@H](C)O)C5Cc3ccc(O)cc32)n1 (stereo partly drawn) [Compound 285]
pEC50 (opioid μ receptor; hydrochloride was used): < 8.00
Emax (opioid μ receptor; [4]): 48%
pEC50 (opioid κ receptor; [7]): < 7.00
Emax (opioid κ receptor; [8]): 78%
pEC50 (opioid δ receptor; [2]): > 8.00
Emax (opioid δ receptor; [3]): 81%
